The target in one series is T1, human mGluR2 receptor (Homo sapiens, UniProt Q14416).
T1 construct: expressed in transfected cells; host or cells: CHO cells
Put plainly: [35S]GTPγS binding assay, positive allosteric modulation (GTPγS-PAM) in presence of EC20 glutamate. The format is biochemical. Particulars: in presence of glutamate at EC20, average pEC50 if more experiments, ‡ means tested once; for EC50: read-out: GTPγS - hR2 PAM pEC50 (converted). Summed up: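 Membranes from butyrate-stimulated CHO cells expressing human mGluR2 (7 μg protein) preincubated 30 min at 30°C with compound plus ~EC20 glutamate in HEPES pH 7.4, 100 mM NaCl, 3 mM MgCl2, 10 μM GDP, 10 μg/ml saponin. [35S]GTPγS (0.1 nM) incorporation over 30 min at 30°C measured by filtration and scintillation counting.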
(Binding of GTPγS marks nucleotide exchange on a G protein.)

Series [1] deals with PCP-induced hyperlocomotion in male NMRI mice. Put plainly: Phencyclidine (PCP)-induced hyperlocomotion in mice (video tracking). The format is in vivo. Particulars: for Mice ED50 (mg/kg) PCP-Inh., estimated ED50 (footnote a) / Mice ED50 (mg/kg) PCP-Inh.: inhibition of PCP-induced hyperlocomotion; for Mice ED50 (mg/kg) PCP-Inh., estimated ED50 (footnote a): estimated ED50 values (n = 3 per dose; 4-fold separation between doses); for Mice ED50 (mg/kg) PCP-Inh.: dose at which 50% of the tested animals show the effect. As for the experimental part: Motor Activity (Video Tracking)
Apparatus and General Procedure
On the day of experiments, the mice were brought into the procedural room. They were housed individually and allowed to acclimate for at least a half hour prior to testing. Although the studies were conducted during the light cycle (from 8:00 to 16:00 h), the procedure room was only sparsely lit (3 to 30 LUX) to provide better contrast for the video tracking. Local lighting was used for the injection procedures. During each trial, an individual mouse was placed in an open field arena (grey PVC cylinder with a height of 40 cm and a diameter of 22.5 cm). Each arena was placed on an infrared LED (8×8 LEDs)-lit box (white PVC squared box; 40×40 cm^2; height 12.5 cm). Each mouse was placed in the center of the arena and allowed to explore freely for 30 min. After each trial, the arena was cleaned with a wet and subsequently with a dry cleaning cloth. An infrared sensitive tube camera and a white light source (in arena: 4-7 LUX) were mounted to the ceiling above the observation chamber to record and input activity to a computer. Animal behavior was recorded and analyzed using the Noldus Ethovision XT Video Tracking System (Version 3.1; Noldus, Wageningen, The Netherlands). The total distance traveled (cm) was calculated. Data were then exported to data management systems for further analysis and reporting.
Phencyclidine (PCP)-Induced Hyperlocomotion in Mice
Test compound or solvent was administered at a pre-defined time before measurement (standard: 30 min) to male NMRI mice that were challenged with phencyclidine (PCP; 5 mg/kg, s.c.) 30 min before measurement. Activity was measured for a period of 30 min.

T1 sequence (Q14416 19-872): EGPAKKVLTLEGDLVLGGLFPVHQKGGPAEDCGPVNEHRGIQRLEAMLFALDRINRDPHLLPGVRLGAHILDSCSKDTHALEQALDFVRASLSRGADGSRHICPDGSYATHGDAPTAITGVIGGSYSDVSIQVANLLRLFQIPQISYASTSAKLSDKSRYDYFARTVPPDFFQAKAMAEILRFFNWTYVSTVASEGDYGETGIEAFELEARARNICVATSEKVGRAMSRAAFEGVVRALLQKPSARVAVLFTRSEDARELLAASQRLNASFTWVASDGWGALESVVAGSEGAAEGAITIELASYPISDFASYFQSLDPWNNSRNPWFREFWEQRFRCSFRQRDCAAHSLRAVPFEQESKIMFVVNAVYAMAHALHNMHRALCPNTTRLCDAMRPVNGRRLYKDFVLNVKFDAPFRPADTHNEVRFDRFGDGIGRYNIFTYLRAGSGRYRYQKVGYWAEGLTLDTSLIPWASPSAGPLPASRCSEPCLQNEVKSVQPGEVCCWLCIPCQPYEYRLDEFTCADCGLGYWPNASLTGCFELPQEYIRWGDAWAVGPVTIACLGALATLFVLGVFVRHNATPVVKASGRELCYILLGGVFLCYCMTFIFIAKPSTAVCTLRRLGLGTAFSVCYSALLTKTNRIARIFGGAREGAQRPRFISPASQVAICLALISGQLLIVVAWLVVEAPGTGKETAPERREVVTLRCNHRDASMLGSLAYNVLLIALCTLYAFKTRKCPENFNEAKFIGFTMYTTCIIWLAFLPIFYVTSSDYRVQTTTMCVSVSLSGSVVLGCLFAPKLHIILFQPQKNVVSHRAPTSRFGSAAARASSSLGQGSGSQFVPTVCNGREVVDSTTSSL

In turn, `CC1(C)CN(c2ccn3c(CC(F)(F)F)nnc3c2Cl)CCN1c1ccccc1` [compound 100, 8-Chloro-3-(2,2,2-trifluoroethyl)-7-(3,3-dimethyl-4-phenyl-piperazin-1-yl)-[1,2,4]triazolo[4,3-a]pyridine] had a melting point of 260.2 °C. In addition, the EC50 at human mGluR2 receptor is 309 nM. Regarding `Fc1cccc(F)c1C1CCN(c2ccn3c(CC4CC4)nnc3c2Cl)CC1` [compound 300], the “GTPγS - hR2 PAM pEC50” value on human mGluR2 receptor came out at 7.24. For the same compound, in series [1], the “inhibition of PCP-induced hyperlocomotion in mice (in words)” value (from here on “inhibition”) is listed as “inhibited” and the “Mice ED50 (mg/kg) PCP-Inh., estimated ED50 (footnote a)” value is on record as 12.6 ^a) mg/kg. In the case of `N#Cc1c(N2CCN(C3CCC(C(F)(F)F)CC3)CC2)ccn2c(CC3CC3)nnc12` (stereo not shown) [compound 44], at human mGluR2 receptor, the “GTPγS - hR2 PAM pEC50” value was 6.02. In series [1], the “Mice ED50 (mg/kg) PCP-Inh.” value is more than 40 mg/kg. In the case of `c1ccc(C2CCN(c3ccn4c(CC5CC5)nnc4c3C3CC3)CC2)cc1` [compound 159, 3-Cyclopropylmethyl-8-cyclopropyl-7-(4-phenylpiperidin-1-yl)-[1,2,4]triazolo[4,3-a]pyridine], the melting point is more than 300 °C. In addition, the EC50 on human mGluR2 receptor was 204 nM. With `FC(F)(F)c1c(CN2CCC(F)(c3ccccc3)CC2)ccn2c(CC3CC3)nnc12` [compound 250, 3-(Cyclopropylmethyl)-7-[(4-fluoro-4-phenyl-1-piperidinyl)methyl]-8-(trifluoromethyl)-1,2,4-triazolo[4,3-a]pyridine], in series [1] (Mus musculus, read-out: Mice ED50 (mg/kg) PCP-Inh.), the ED50 is more than 10 mg/kg. Turning to `CC1(c2ccccn2)CCN(c2ccn3c(CC4CC4)nnc3c2C(F)(F)F)CC1` [compound 148, 8-Trifluoromethyl-3-(cyclopropylmethyl)-7-(4-methyl-4-(2-pyridinyl)-piperidin-1-yl)-1,2,4-triazolo[4,3-a]pyridine], the melting point is more than 300 °C. Moreover, the EC50 on human mGluR2 receptor is 363 nM. Take `CCc1nnc2c(C(F)(F)F)c(N3CCC(c4ccccc4)CC3)ccn12` [compound 66]: at human mGluR2 receptor, the “GTPγS - hR2 PAM pEC50” value was 6.94. Also, in series [1], the “inhibition” value is on record as “inhibited” and the “Mice ED50 (mg/kg) PCP-Inh.” value was 17.4 ^ mg/kg. For `FC(F)(F)Cc1nnc2c(Cl)c(CN3CCC(c4ccccc4)CC3)ccn12` [compound 30], on human mGluR2 receptor, the “GTPγS - hR2 PAM pEC50” value was 6.95. Besides, in series [1], the “inhibition” value was “inhibited” and the “Mice ED50 (mg/kg) PCP-Inh., estimated ED50 (footnote a)” value is on record as 5 ^a) mg/kg. Turning to `FC(F)(F)c1c(N2CCC3(CC2)COc2ncccc23)ccn2c(CC3CC3)nnc12` [compound 119, 1′-[3-cyclopropylmethyl-8-(trifluoromethyl)[1,2,4]triazolo[4,3-a]pyridin-7-yl]-spiro[furo[2,3-b]pyridine-3(2H),4′-piperidine]], on human mGluR2 receptor, the EC50 is 1740 nM. Turning to `FC(F)(F)c1c(N2CCC(Oc3ccccn3)CC2)ccn2c(CC3CC3)nnc12` [compound 124], the “GTPγS - hR2 PAM pEC50” value at human mGluR2 receptor was determined as 6.98. On the same count and under the same terms, then `CC1(C)CN(c2ccn3c(CC4CC4)nnc3c2Cl)CCN1c1ccccc1` [compound 105], with 6.17‡. For the compound `N#Cc1c(N2CCC(c3ccccc3)CC2)ccn2c(CN3CCC(C(F)(F)F)CC3)nnc12` [compound 37], the “GTPγS - hR2 PAM pEC50” value at human mGluR2 receptor was found to be 6.51. As for `FC(F)(F)c1c(N2CCc3ccccc3C2)ccn2c(CC3CC3)nnc12` [compound 118], the “GTPγS - hR2 PAM pEC50” value on human mGluR2 receptor is on record as 6.83.

With `CCCc1nnc2c(C(F)(F)F)c(N3CCC4(CC3)COc3ccccc34)ccn12` [compound 87], the “GTPγS - hR2 PAM pEC50” value on human mGluR2 receptor was found to be 6.94. Same read-out and setting: then `COc1ccc(F)cc1C1CCN(c2ccn3c(CC(F)(F)F)nnc3c2Cl)CC1` [compound 61], with 7.98; and `CC1CN(c2ccn3c(CC4CC4)nnc3c2Cl)CCC1c1ccccc1` (single isomer, unassigned) [compound 208], with 7.06. On to `CC1(C)OC2(CCN(c3ccn4c(CC5CC5)nnc4c3Cl)CC2)c2ccccc21` [compound 104], for which, on human mGluR2 receptor, the “GTPγS - hR2 PAM pEC50” value was found to be 7.7. Same read-out and setting: then `Clc1c(N2CCC(Oc3cccnc3)CC2)ccn2c(CC3CC3)nnc12` [compound 170], with 5.84‡; and `N#Cc1c(N2CCC(F)(c3ccccc3)CC2)ccn2c(CC(F)(F)F)nnc12` [compound 54], with 6.95; and `FC(F)(F)c1c(N2CCC(c3ccccc3)CC2)ccn2c(CC3CCC3)nnc12` [compound 185], with 8.26. On the same count and under the same terms, in the case of `FC(F)(F)C1CCC(N2CCN(c3ccn4c(CC5CC5)nnc4c3Cl)CC2)CC1` (stereo not shown) [compound 223] it was 6.03‡. For the compound `Fc1cccc(C2(C(F)(F)F)CCN(c3ccn4c(CC5CC5)nnc4c3Cl)CC2)c1` [compound 117], at human mGluR2 receptor, the “GTPγS - hR2 PAM pEC50” value turned out to be 6.68. With `CC(C)(O)c1ccccc1C1CCN(c2ccn3c(CC4CC4)nnc3c2Cl)CC1` [compound 7, 2-[1-[8-Chloro-3-(cyclopropylmethyl)-1,2,4-triazolo[4,3-a]pyridin-7-yl]-4-piperidinyl]-α,α-dimethyl-benzenemethanol], the EC50 on human mGluR2 receptor was 39.8 nM. In the case of `Fc1ccc(CN2CCN(c3ccn4c(CC5CC5)nnc4c3C(F)(F)F)CC2)c(F)c1` [compound 227], the “GTPγS - hR2 PAM pEC50” value on human mGluR2 receptor is 6.31‡.

Take `FC(F)(F)c1c(N2CCN(c3ncccn3)CC2)ccn2c(CC3CC3)nnc12` [compound 64]: the “GTPγS - hR2 PAM pEC50” value at human mGluR2 receptor is 6.65. Still for that read-out and setting: in the case of `CCCc1nnc2c(Cl)c(N3CCC4(CC3)OCc3ccccc34)ccn12` [compound 93] it was 6.53. `N#Cc1c(N2CCC(c3ccccc3)CC2)ccn2c(C3CCC3)nnc12` [compound 14, 3-Cyclobutyl-7-(4-phenyl-1-piperidinyl)-1,2,4-triazolo[4,3-a]pyridine-8-carbonitrile]: the EC50 on human mGluR2 receptor was 427 nM. Consider `Fc1ccc(N2CC3(CCN(c4ccn5c(CC6CC6)nnc5c4Cl)CC3)C2)c(F)c1` [compound 210], for which the “GTPγS - hR2 PAM pEC50” value on human mGluR2 receptor is 6.5. Still for that read-out and setting: in the case of `COc1c(F)cccc1C1CCN(c2ccn3c(CC(F)(F)F)nnc3c2C#N)CC1` [compound 27] it was 7.51; in that of `Fc1ccccc1C1CCN(c2ccn3c(CC4CC4)nnc3c2C(F)(F)F)CC1` [compound 274], 7.83‡; in that of `CCc1nnc2c(C#N)c(N3CCC(c4ccccc4)CC3)ccn12` [compound 10, 3-ethyl-7-(4-phenyl-1-piperidinyl)-1,2,4-triazolo[4,3-a]pyridine-8-carbonitrile], 6.16. For `COc1cccc(F)c1N1CCN(c2ccn3c(CC4CC4)nnc3c2C(F)(F)F)CC1` [compound 301], the “GTPγS - hR2 PAM pEC50” value on human mGluR2 receptor is on record as 7.45‡.

For the compound `FC(F)(F)c1c(N2CCC3(CC2)OC(F)(F)c2ccccc23)ccn2c(CC3CC3)nnc12` [compound 147, 1′-[3-cyclopropylmethyl-8-(trifluoromethyl)[1,2,4]triazolo[4,3-a]pyridin-7-yl]-3,3-difluoro-3H-spiro[benzo[c]furan-1,4′-piperidine]], the EC50 at human mGluR2 receptor is 245 nM. `Fc1ccc(N2CC3(CCN(c4ccn5c(CC6CC6)nnc5c4C(F)(F)F)CC3)C2)c(F)c1` [compound 201]: on human mGluR2 receptor, the “GTPγS - hR2 PAM pEC50” value was 6.9. Same read-out and setting: then `FC(F)(F)c1c(N2CCN(CCc3ccccc3)CC2)ccn2c(CC3CC3)nnc12` [compound 216], with 6.68. For the compound `CCCc1nnc2c(Cl)c(N3CCC4(CC3)OCc3c(F)cccc34)ccn12` [compound 106], the “GTPγS - hR2 PAM pEC50” value on human mGluR2 receptor is 6.45. Regarding `CCc1nnc2c(Cl)c(N3CCC(c4ccccc4)CC3)ccn12` [compound 25], the “GTPγS - hR2 PAM pEC50” value at human mGluR2 receptor stood at 6.42. The same measure, in the same setting: then `COc1cnc(N2CCN(c3ccn4c(CC5CC5)nnc4c3C(F)(F)F)CC2)nc1` [compound 90], with 6.61; and `Fc1cnc(N2CCN(c3ccn4c(CC5CC5)nnc4c3C(F)(F)F)CC2)c(F)c1` [compound 359], with 7‡; and `Fc1ccc(OC2CCN(c3ccn4c(CC5CC5)nnc4c3C(F)(F)F)CC2)c(F)c1` [compound 315], with 7.24.

As to `FC(F)(F)c1c(N2CCC(c3cccnc3)CC2)ccn2c(CC3CC3)nnc12` [compound 198], the “GTPγS - hR2 PAM pEC50” value at human mGluR2 receptor is 6.29‡.

With `CC(C)OCc1nnc2c(C(F)(F)F)c(N3CCN(c4ccccc4)CC3)ccn12` [compound 155], the “GTPγS - hR2 PAM pEC50” value on human mGluR2 receptor is on record as 6.83‡.

`FC(F)(F)c1c(N2CCC(c3ccccn3)CC2)ccn2c(CC3CC3)nnc12` [compound 78]: the “GTPγS - hR2 PAM pEC50” value on human mGluR2 receptor came out at 6.83. In series [1], the “Mice ED50 (mg/kg) PCP-Inh.” value is on record as ≥10^ mg/kg. Take `FC(F)(F)c1c(N2CCC(Oc3ccccn3)CC2)ccn2c(CCC3CC3)nnc12` [compound 129]: the “GTPγS - hR2 PAM pEC50” value at human mGluR2 receptor is 6.92.

By melting point is commonly meant the temperature of the solid-liquid transition.

These data come from US10071095B2, “1,2,4-triazolo [4,3-A] pyridine derivatives and their use for the treatment of neurological and psychiatric disorders” (JANSSEN PHARMACEUTICALS, INC., priority 2009, dated 2018).
